According to patent US20250223306A1, “TEAD INHIBITORS AND METHODS OF USE” (Sporos BioDiscovery, Inc., priority 2022, published 2025):

Tested on: MSTO-211H xenograft
Assay: Inhibition of mouse xenograft MSTO-211H tumors
Type: in vivo, BALB/c nude mice
Conditions: 12.5 mg/kg, PO, BID; for Tumor Volume (mean): day 27 (Table 16); for Relative T/C (treated/control relative tumor volume ratio) / TGI: day 27; for Relative T/C (treated/control relative tumor volume ratio): T/C(%) = TRTV / CRTV × 100; for TGI: TGI = [1 − (Ti − T0)/ (Vi − V0)] × 100
Description: This study evaluated the in vivo anti-tumor efficacy of test compounds in BALB/c nude mice for treatment of MSTO-211H xenograft of lung cancer.
• Species: Mus Musculus • Strain: BALB/c nude • Age: 6-8 weeks • Sex: female • Body weight: 18-22 g • Number of animals inoculated with tumor: 80 mice • Number of animals enrolled in the treatment: 36 mice • Number of unenrolled animals: 44 mice • Animal supplier: Beijing Vital River Biotechnology Experimental Animal Co. Ltd Certification number: 20170011010591
The MSTO-211H tumor cells were maintained in RPMI 1640 medium supplemented with 10% Fetal bovine serum and 1% Antibiotic-Antimycotic at 37° C. in an atmosphere of 5% CO2 in air. The tumor cells were routinely subcultured twice weekly by trypsin-EDTA. The cells growing in an exponential growth phase with 95% cell survival or above were harvested, and counted for tumor inoculation.
Each mouse was inoculated subcutaneously at the right flank with MSTO-211H tumor cells (5×10^6+50% matrigel/0.2 mL) for tumor development. Animals were marked with earrings with unique 6 significant figure number for identification. The treatments were started when the average tumor volume reached an average size of 181 mm^3.
The major endpoint was to see if the tumor growth could be delayed or mice could be cured. Tumor volume was measured twice a week in two dimensions using a caliper, and the volume was expressed in mm^3 using the formula: V=0.5 a×b^2 where a and b are the long and short diameters of the tumor, respectively. The tumor size was then used for calculations of T/C value. The TGI value (in percent) or the T/C value (in percent) is an indication of antitumor effectiveness; T and C are the mean tumor volumes or tumor weights of the treated and control groups, respectively, on a given day.
TGI was calculated for each group using the formula: TGI (%)=[1−(Ti−T0)/(Vi−V0)]×100; Ti is the average tumor volume of a treatment group on a given day, To is the average tumor volume of the treatment group on the day of treatment start, Vi is the average tumor volume of the vehicle control group on the same day with Ti, and V0 is the average tumor volume of the vehicle group on the day of treatment start.
Relative T/C (%)=TRTV/CRTV×100 (RTV(%)=Vt/V0×100, Vt is the average tumor volume on a given day, V0 is the average tumor volume on the first day of treatment. TRTV is the RTV of a treatment group, and the CRTV is the RTV of the vehicle control group.)
Summary statistics, including mean and the standard error of the mean (SEM), were provided for the tumor volume of each group at each time point.
Statistical analysis of difference in tumor volume among the groups was conducted on the data obtained at the end of the study.
One-tailed T test was performed to compare tumor volumes between two groups. All data are analyzed using GraphPad Prism 6.0. p<0.05 is considered to be statistically significant.
The antitumor effectiveness of the study was analyzed on PG-D27 when vehicle group reached 588 mm^3.

[1] = day 0 after the start of treatment
[2] = day 3 after the start of treatment
[3] = day 6 after the start of treatment
[4] = day 10 after the start of treatment
[5] = day 13 after the start of treatment
[6] = day 17 after the start of treatment
[7] = day 20 after the start of treatment
[8] = day 23 after the start of treatment
[9] = day 27 after the start of treatment

SMILES	Tumor size (mean) [1] [mm^3]	Tumor size (mean) [2] [mm^3]	Tumor size (mean) [3] [mm^3]	Tumor size (mean) [4] [mm^3]	Tumor size (mean) [5] [mm^3]	Tumor size (mean) [6] [mm^3]	Tumor size (mean) [7] [mm^3]	Tumor size (mean) [8] [mm^3]	Tumor Volume (mean) [mm^3]	Relative T/C (treated/control relative tumor volume ratio) [%]	TGI [%]	Tumor size (mean) [9] [mm^3]
C[C@H](CO)NC(=O)c1cnc2c(C3=CCC(C(F)(F)F)CC3)cccc2c1 (stereo partly drawn) [Compound 7, N—((R)-1-hydroxypropan-2-yl)-8-(4-(trifluoromethyl)cyclohex-1-en-1-yl)quinoline-3-carboxamide]	181	245	219	124	99	86	109	117	126	21.4	113.6	126
COC[C@H](CO)NC(=O)c1cnc2c(C3=CCC(C(F)(F)F)CC3)cccc2c1 (stereo partly drawn) [Compound 62, N—((S)-1-hydroxy-3-methoxypropan-2-yl)-8-(4-(trifluoromethyl)cyclohex-1-en-1-yl)quinoline-3-carboxamide]	181	224	228	149	111	82	88	101	104	17.9	119.1	104
COc1cc(C2=CCC(C(F)(F)F)CC2)c2ncc(C(=O)N[C@H](C)c3ncco3)cc2c1 (stereo partly drawn) [Compound 109, 6-methoxy-N—((R)-1-(oxazol-2-yl)ethyl)-8-(4-(trifluoromethyl)cyclohex-1-en-1-yl)quinoline-3-carboxamide]	181	216	174	89	59	44	44	46	58	10.1	130.2	58
COc1cc(C2=CCC(C(F)(F)F)CC2)c2ncc(C(=O)N[C@H](C)CO)cc2c1 (stereo partly drawn) [Compound 110, N—((R)-1-hydroxypropan-2-yl)-6-methoxy-8-(4-(trifluoromethyl)cyclohex-1-en-1-yl)quinoline-3-carboxamide]	181	207	179	107	75	51	42	53	50	8.5	132.4	50
C[C@@H](NC(=O)c1cnc2c(C3=CCC4(CC3)CC4)cccc2c1)c1ncco1 [Compound 166, (R)—N-(1-(oxazol-2-yl)ethyl)-8-(spiro[2.5]oct-5-en-6-yl)quinoline-3-carboxamide]	181	192	177	153	145	139	148	184	219	38.1	90.7	219
